Experimental data reported in patent US10221163B2 (priority 2015, dated 2019).
Read-outs that look alike come from different tables or passages of the source.

Key:
IMP-1 = IMP-1 (Serratia marcescens, UniProt P52699); test: biochemical; format: biochemical; settings: fluorescence assay, CCF2-FA substrate, 2 pM enzyme, 2 hours at 25° C., read-out: IMP-1 IC50
How it was run: (§1)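 Test compound, enzyme and the FRET cephalosporin substrate CCF2-FA are incubated together for 2 hours at 25° C. Cleavage is followed by fluorescence, and IC50 values are derived from semi-logarithmic inhibition curves fitted with a 4-parameter model.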

NDM-1 = NDM-1 (Klebsiella pneumoniae, UniProt C7C422); test: biochemical; format: biochemical; settings: fluorescence assay, CCF2-FA substrate, 1 pM enzyme, 2 hours at 25° C., read-out: NDM-1 IC50
Sequence of NDM-1 (C7C422 whole entry, looked up, species assumed): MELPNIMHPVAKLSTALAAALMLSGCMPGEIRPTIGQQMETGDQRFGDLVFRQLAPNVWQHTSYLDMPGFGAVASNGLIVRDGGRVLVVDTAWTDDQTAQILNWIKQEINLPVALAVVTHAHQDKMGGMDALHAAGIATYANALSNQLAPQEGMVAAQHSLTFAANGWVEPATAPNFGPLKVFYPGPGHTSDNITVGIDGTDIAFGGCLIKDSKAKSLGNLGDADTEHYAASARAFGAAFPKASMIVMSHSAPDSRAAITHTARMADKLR
How it was run: as §1

VIM-1 = VIM-1 (Pseudomonas aeruginosa (strain ATCC 15692 / DSM 22644 / CIP 104116 / JCM 14847 / LMG 12228 / 1C / PRS 101 / PAO1), UniProt A0A0F7KYQ8); test: biochemical; settings: CCF2-FA substrate, 30 pM enzyme, 2 hours at 25° C.
How it was run: as §1

[1] = tested on: Escherichia coli expressing NDM-1 (CLB30005, CLB30016); format: cell-based; settings: with imipenem 1 μg/ml; 95% inhibition of bacterial growth
How it was run: (§2)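 Imipenem 1 μg/ml + inhibitor; MBL-expressing clinical strains in 1.1×CAMHB, inoculum from saline suspension diluted 1:100; 35° C, 22–24 h; absorbance read-out.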

[2] = tested on: Klebsiella pneumoniae expressing VIM-1 (IHMA599644); format: cell-based; settings: with imipenem 1 μg/ml; 95% inhibition of bacterial growth
How it was run: as §2

[3] = tested on: Serratia marcescens expressing IMP-1 (CL5741); format: cell-based; settings: with imipenem 1 μg/ml; 95% inhibition of bacterial growth
How it was run: as §2

[4] = tested on: Pseudomonas aeruginosa efflux+ (MB9798), IMP-1; format: cell-based; settings: concentration restoring susceptibility to imipenem at 2 μg/mL in the presence of a class A, C, D serine β-lactamase inhibitor closely related to relebactam
How it was run: (§3)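 P. aeruginosa PAO1-derived IMP-1 strains, efflux+ MB9798 and efflux− MB9799, tested by standard microbroth MIC with imipenem and/or ceftazidime fixed, usually at CLSI breakpoint, plus fixed class A/C β-lactamase inhibitor against AmpC. Inhibitor titrated; concentration restoring susceptibility recorded; MB9798/MB9799 fold difference indicates efflux.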

[5] = tested on: Pseudomonas aeruginosa efflux− (MB9799), IMP-1; format: cell-based; settings: concentration restoring susceptibility to imipenem at 2 μg/mL in the presence of a class A, C, D serine β-lactamase inhibitor closely related to relebactam
How it was run: as §3

[6] = tested on: Pseudomonas aeruginosa MB9798 vs MB9799; settings: ratio MITC95 PA_9798/MITC95 PA_9799
How it was run: as §3

[7] = fluorescence assay, read-out: VIM-1 IC50

Sequence of IMP-1 (P52699 whole entry, looked up, species assumed): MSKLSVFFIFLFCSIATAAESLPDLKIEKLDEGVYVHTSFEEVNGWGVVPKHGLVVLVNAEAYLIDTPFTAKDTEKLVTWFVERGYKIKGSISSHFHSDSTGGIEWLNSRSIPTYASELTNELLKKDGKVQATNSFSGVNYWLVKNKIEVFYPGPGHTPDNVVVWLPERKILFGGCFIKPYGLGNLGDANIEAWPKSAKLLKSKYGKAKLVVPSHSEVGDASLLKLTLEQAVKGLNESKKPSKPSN

| Structure (SMILES) | IC50 (IMP-1) [nM] | IC50 (NDM-1) [nM] | IC50 (VIM-1; [7]) [nM] | Escherichia coli expressing NDM-1 (CLB30016) MITC95 [1] [µM] | Klebsiella pneumoniae expressing VIM-1 (IHMA599644) MITC95 [2] [µM] | Serratia marcescens expressing IMP-1 (CL5741) MITC95 [3] [µM] | P. aeruginosa expressing IMP-1, efflux + (MB9798) MITC95 [4] [µM] | P. aeruginosa expressing IMP-1, efflux − (MB9799) MITC95 [5] [µM] | Efflux ratio [6] | IC50 (VIM-1; VIM-1 IC50, fluorescence assay) [nM] | IC50 (IMP-1; 2,2,2-trifluoroacetate) [nM] | IC50 (NDM-1; 2,2,2-trifluoroacetate) [nM] |
| --- | --- | --- | --- | --- | --- | --- | --- | --- | --- | --- | --- | --- |
| COCCNCCNS(=O)(=O)c1ccc(-c2cccc3sc(N)nc23)c(-c2nnn[nH]2)c1S(N)(=O)=O [Example 85, 4-(2-aminobenzo[d]thiazol-4-yl)-N1-(2-((2-methoxyethyl)amino)ethyl)-3-(1H-tetrazol-5-yl)benzene-1,2-disulfonamide] | 0.205 | 0.0351 | 0.147 | 6.25 | 6.25 | 3.125 | 1.563 | 1.563 | 1.00 |  |  |  |
| Nc1nc2c(-c3ccc(S(=O)(=O)NCC4(O)CCNCC4)c(S(N)(=O)=O)c3-c3nnn[nH]3)cccc2s1 [Example 86, 4-(2-aminobenzo[d]thiazol-4-yl)-N^1-((4-hydroxypiperidin-4-yl)methyl)-3-(1H-tetrazol-5-yl)benzene-1,2-disulfonamide] | 0.129 | 0.0275 | 0.0756 | 1.563 | 6.25 | 1.563 | 0.7813 | 1.563 | 0.50 |  |  |  |
| CC(C)(N)CNS(=O)(=O)c1ccc(-c2cccc3sc(N)nc23)c(-c2nnn[nH]2)c1S(N)(=O)=O [Example 87, N^1-(2-amino-2-methylpropyl)-4-(2-aminobenzo[d]thiazol-4-yl)-3-(1H-tetrazol-5-yl)benzene-1,2-disulfonamide] | 0.261 | 0.0367 | 0.197 | 3.125 | 6.25 | 3.125 | 0.7813 | 1.563 | 0.50 |  |  |  |
| Nc1nc2c(-c3ccc(S(=O)(=O)NC4CC5CNC4C5)c(S(N)(=O)=O)c3-c3nnn[nH]3)cccc2s1 (stereo not drawn) [Example 88, 4-(2-aminobenzo[d]thiazol-4-yl)-N^1-(2-azabicyclo[2.2.1]heptan-6-yl)-3-(1H-tetrazol-5-yl)benzene-1,2-disulfonamide] | 0.172 | 0.0203 | 0.165 | 3.125 | 6.25 | 3.125 | 1.563 | 3.125 | 0.50 |  |  |  |
| Nc1nc2c(-c3ccc(S(=O)(=O)NC4CC5CNC4C5)c(S(N)(=O)=O)c3-c3nnn[nH]3)cccc2s1 (stereo not drawn) [Example 89, 4-(2-aminobenzo[d]thiazol-4-yl)-N^1-(2-azabicyclo[2.2.1]heptan-6-yl)-3-(1H-tetrazol-5-yl)benzene-1,2-disulfonamide] | 0.568 | 0.0581 | 0.23 | 6.25 | 6.25 | 3.125 | 1.563 | 1.563 | 1.00 |  |  |  |
| NCCCNS(=O)(=O)c1ccc(-c2cccc3sc(N)nc23)c(-c2nnn[nH]2)c1S(N)(=O)=O.O=C(O)C(F)(F)F [Example 90, 3-(4-(2-aminobenzo[d]thiazol-4-yl)-2-sulfamoyl-3-(1H-tetrazol-5-yl)phenylsulfonamido)propan-1-aminium 2,2,2-trifluoroacetate] | 0.411 | 0.0795 | 0.27 | 3.125 | 3.125 | 1.563 | 0.7813 | 1.563 | 0.50 |  |  |  |
| Nc1nc2c(-c3ccc(S(=O)(=O)NCC4(F)CNC4)c(S(N)(=O)=O)c3-c3nnn[nH]3)cccc2s1.O=CO [Example 91, 3-(((4-(2-aminobenzo[d]thiazol-4-yl)-2-sulfamoyl-3-(1H-tetrazol-5-yl)phenyl)sulfonamido)methyl)-3-fluoroazetidin-1-ium formate] | 0.326 | 0.0769 |  | 1.563 | 3.125 | 1.563 | 1.563 | 1.563 | 1.00 | 0.327 |  |  |
| CNCCCN(C)S(=O)(=O)c1ccc(-c2cccc3sc(N)nc23)c(-c2nnn[nH]2)c1S(N)(=O)=O.O=C(O)C(F)(F)F [Example 93, 3-(4-(2-aminobenzo[d]thiazol-4-yl)-N-methyl-2-sulfamoyl-3-(1H-tetrazol-5-yl)phenylsulfonamido)-N-methylpropan-1-aminium 2,2,2-trifluoroacetate] | 5.29 | 6.35 | 12.4 | 6.25 | 12.5 | 3.125 | 3.125 | 3.125 | 1.00 |  |  |  |
| NC[C@@H]1CCN(S(=O)(=O)c2ccc(-c3cccc4sc(N)nc34)c(-c3nnn[nH]3)c2S(N)(=O)=O)C1.O=C(O)C(F)(F)F [Example 94, (S)-(1-((4-(2-aminobenzo[d]thiazol-4-yl)-2-sulfamoyl-3-(1H-tetrazol-5-yl)phenyl)sulfonyl)pyrrolidin-3-yl)methanaminium 2,2,2-trifluoroacetate] |  |  |  | 3.646 | 3.125 | 2.083 | 1.563 | 1.563 | 1.00 | 0.973 | 0.73 | 0.574 |
| Nc1nc2c(-c3ccc(S(=O)(=O)NC4CCC5OC4CC5N)c(S(N)(=O)=O)c3-c3nnn[nH]3)cccc2s1.O=C(O)C(F)(F)F (stereo not drawn) [Example 95, 2-(4-(2-aminobenzo[d]thiazol-4-yl)-2-sulfamoyl-3-(1H-tetrazol-5-yl)phenylsulfonamido)-8-oxabicyclo[3.2.1]octan-6-aminium 2,2,2-trifluoroacetate] | 0.193 | 0.027 | 0.173 | 1.563 | 3.125 | 3.125 | 1.563 | 1.563 | 1.00 |  |  |  |
| Nc1nc2c(-c3ccc(S(=O)(=O)NCC4COCCN4)c(S(N)(=O)=O)c3-c3nnn[nH]3)cccc2s1.O=C(O)C(F)(F)F (stereo not drawn) [Example 96, 3-((4-(2-aminobenzo[d]thiazol-4-yl)-2-sulfamoyl-3-(1H-tetrazol-5-yl)phenylsulfonamido)methyl)morpholin-4-ium 2,2,2-trifluoroacetate] | 0.402 | 0.0757 |  | 6.25 | 6.25 | 3.125 | 3.125 | 3.125 | 1.00 | 0.299 |  |  |
